{"source": "paper PMC5597618", "about": "“Identification and characterization of the novel reversible and selective cathepsin X inhibitors” (Scientific Reports, 2017)", "key": {"[1]": {"target": "T1, Cathepsin B (endopeptidase a.) (Homo sapiens, UniProt P07858)", "T1 construct": "made in house; host or cells: E. coli", "test": "Ki against cathepsin B endopeptidase activity (Z-RR-AMC)", "type": "biochemical", "conditions": "SigmaPlot at 3 different substrate concentrations; pH 6.0", "description": "(§1) Recombinant or native human cathepsins were used: recombinant cathepsin X and cathepsin S were expressed in Pichia pastoris, recombinant cathepsins B and L in E. coli, [43], native cathepsin H was isolated from human liver. Assay buffers for determining activities of cathepsins X and L consisted of 100 mM sodium acetate buffer, pH 5.5, for cathepsins H, S and B (endopeptidase activity) of 100 mM phosphate buffer pH 6.8, 6.5 and 6.0, respectively and for cathepsin B (exopeptidase activity) of 60 mM acetate buffer pH 5.0. Each assay buffer contained 0.01% Triton X-100 to prevent false positive inhibition due to aggregation of compounds[45], 5 mM cysteine, 1.5 mM EDTA and 0.1% PEG 8000. Enzymes were activated at 37 °C for 5 min before the assays.\n(§2) Ki was determined by measuring the initial rate of hydrolysis at three different substrate concentrations (Supplementary Table S2) in the presence of seven different compound concentrations (0, 20, 40, 60, 80, 100 and 200 μM). 90 μL of the activated cathepsin was added to a black 96-well plate with 5 μL of the substrate and 5 μL of the compound. Formation of the fluorescent degradation product was monitored continuously at 460 nm ± 10 nm with excitation at 380 nm ± 20 nm (for AMC substrates) and, as noted above for Abz substrates, at 37 °C. All measurements were performed twice and in duplicate. The resulting data were analyzed by non-linear regression using the software SigmaPlot®, Enzyme Kinetics Module™ 1.3 and were fitted to the equation v = v max [S]/([S] (1 + [I]/αK i ) + K m (1 + [I]/K i )) (first group of compounds). For Ki determination against cathepsin X for the compounds from the second group, progress curves in the absence and presence of each putative inhibitor were fitted to the reaction mechanism presented in Fig. 3b. In this case the resulting data as well as reactivation curves were fitted to the equation system presented in Fig. 3c using ENZO application. For calculation of kinetic parameters from reaction progress curves the fluorescence coefficient for conversion of arbitrary fluorescence units to concentration was first determined. The fluorescence coefficient was calculated as the slope from the plot of initial substrate concentration vs. height of the plateau of the progress curve after complete hydrolysis of increasing concentrations of substrate, using linear regression.\n(§3) Supplementary Table S2. Substrates used for the various cathepsins and their concentrations […]\n(§4) Enzyme Substrate Concentration (µM) Reference/Company cathepsin X Abz-FEK(Dnp)-OH 3.25, 6.5, 13 Puzer et al.3 cathepsin B - endopept. Z-RR-AMC 60, 180, 360 Bachem cathepsin B - exopept. Abz-GIVRAK(Dnp)-OH 1, 3, 6 Bachem cathepsin S Z-VVR-AMC 0.5, 1, 1.5 Biomol cathepsin L Z-FR-AMC 0.5, 1, 4 Bachem cathepsin H Z-R-AMC 20, 80, 160 Biomol […]"}, "Cathepsin L": {"target": "T2, Cathepsin L (Homo sapiens, UniProt P07711)", "T2 construct": "made in house; host or cells: E. coli", "T2 sequence (P07711 114-333)": "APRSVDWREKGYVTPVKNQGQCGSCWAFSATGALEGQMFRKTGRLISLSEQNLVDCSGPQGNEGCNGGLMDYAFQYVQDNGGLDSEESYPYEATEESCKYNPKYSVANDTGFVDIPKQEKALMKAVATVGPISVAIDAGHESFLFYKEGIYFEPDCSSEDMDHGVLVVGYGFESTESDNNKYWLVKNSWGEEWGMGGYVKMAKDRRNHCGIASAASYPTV", "test": "Ki against cathepsin L (Z-FR-AMC)", "type": "biochemical", "conditions": "SigmaPlot at 3 different substrate concentrations; pH 5.5", "description": "as §1, §2, §3, §4"}, "Cathepsin H": {"target": "T3, Cathepsin H (Homo sapiens, UniProt P09668)", "T3 construct": "native cathepsin H was isolated from human liver; from tissue; host or cells: human liver", "T3 sequence (P09668 116-335 limits assumed, other chains not shown)": "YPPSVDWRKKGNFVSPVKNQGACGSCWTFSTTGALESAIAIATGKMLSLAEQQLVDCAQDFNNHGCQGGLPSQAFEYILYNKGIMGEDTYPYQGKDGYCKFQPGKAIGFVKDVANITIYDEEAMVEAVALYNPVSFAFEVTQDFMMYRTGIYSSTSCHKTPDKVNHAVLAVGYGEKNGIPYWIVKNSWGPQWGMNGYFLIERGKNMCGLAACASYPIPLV", "test": "Ki against cathepsin H (Z-R-AMC)", "type": "biochemical", "conditions": "SigmaPlot at 3 different substrate concentrations; pH 6.8", "description": "as §1, §2, §3, §4"}, "Cathepsin S": {"target": "T4, Cathepsin S (Homo sapiens, UniProt P25774)", "T4 construct": "made in house; host or cells: Pichia pastoris", "T4 sequence (P25774 115-331)": "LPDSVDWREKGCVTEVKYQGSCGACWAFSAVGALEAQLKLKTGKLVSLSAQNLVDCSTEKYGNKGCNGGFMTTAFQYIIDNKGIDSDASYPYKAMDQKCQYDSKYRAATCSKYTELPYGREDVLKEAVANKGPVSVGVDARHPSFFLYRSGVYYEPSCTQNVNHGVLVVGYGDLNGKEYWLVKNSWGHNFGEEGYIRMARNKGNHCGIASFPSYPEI", "test": "Ki against cathepsin S (Z-VVR-AMC)", "type": "biochemical", "conditions": "SigmaPlot at 3 different substrate concentrations; pH 6.5", "description": "as §1, §2, §3, §4"}, "[2]": {"target": "T5, cathepsin X in PC-12 cell lysates (Rattus norvegicus, UniProt Q9R1T3)", "T5 construct": "endogenous in cells; host or cells: PC-12", "T5 sequence (Q9R1T3 64-306)": "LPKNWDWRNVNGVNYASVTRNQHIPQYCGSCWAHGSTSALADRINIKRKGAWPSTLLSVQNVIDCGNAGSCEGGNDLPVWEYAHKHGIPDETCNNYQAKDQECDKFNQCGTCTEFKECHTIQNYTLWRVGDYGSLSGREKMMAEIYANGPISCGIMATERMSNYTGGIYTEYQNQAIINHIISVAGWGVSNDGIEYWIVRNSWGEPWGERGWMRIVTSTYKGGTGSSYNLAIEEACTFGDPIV", "test": "Cathepsin X activity in PC-12 cell lysates", "type": "cell-based", "conditions": "10 μM", "description": "To detect cathepsin X activity in cell lysates, 95 μL of activated cell lysates (0.2 mg/mL total protein in assay buffer) were added to a black 96-well plate containing 5 μL of the substrate. The further procedure was the same as above. In some experiments lysates of non-treated cells were pre-incubated with 10 μM of compounds for 30 minutes and then activity was measured as described above.\nFor testing the enzyme activity in cell lysates, cells were treated with 10 μM of compounds. After 24 hours lysates were prepared in 50 mM Na acetate buffer pH 5.5 with 1 mM EDTA, 100 mM NaCl and 0.25% Triton X-100. Total protein concentration was determined by DC Protein Assay (Bio Rad) according to the instructions."}, "PC-12 cells": {"system": "PC-12 cells", "test": "Determination of F-actin content of cells (phalloidin-TRITC fluorescence microscopy)", "type": "cell-based, rat", "conditions": "10 µM, 2 h", "description": "For the fluorescence staining of F-actin, PC-12 cells were cultured on glass coverslips coated with poly-L-lysine (4 × 10^4/ml). Next day, cells were treated with compounds (10 µM) in serum-free medium for 2 h. The cells were then fixed in 5% formalin (w/v) in PBS (pH 7.4) for 5 min and permeabilized with 0.1% Triton X-100 in PBS for 3 min. After washing with PBS, cells were incubated with phalloidin-TRITC (500 ng/mL) (Sigma) in 20 mM TrisHCl (pH 7.4) at 37 °C for 30 min. After additional washing with PBS, the Prolong Antifade kit was used for mounting the coverslips on glass slides. Fluorescence microscopy was performed using an Olympus IX 81 motorized inverted microscope."}, "cathepsin X [3]": {"target": "T6, cathepsin X (Homo sapiens, UniProt Q9UBR2)", "T6 sequence (Q9UBR2 62-303)": "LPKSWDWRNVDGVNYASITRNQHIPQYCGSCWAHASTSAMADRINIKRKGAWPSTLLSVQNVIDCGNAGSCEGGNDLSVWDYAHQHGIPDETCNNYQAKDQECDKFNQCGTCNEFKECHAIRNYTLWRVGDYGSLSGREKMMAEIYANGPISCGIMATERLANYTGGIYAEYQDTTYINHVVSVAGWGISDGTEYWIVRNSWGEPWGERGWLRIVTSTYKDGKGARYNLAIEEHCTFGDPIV", "test": "Determination of Ki values and inhibition mechanism against cathepsin X (Abz-FEK(Dnp)-OH substrate)", "type": "biochemical", "set-up": "made in house; host or cells: Pichia pastoris", "conditions": "second group", "description": "as §1, §2, §3, §4"}, "cathepsin X [4]": {"target": "T6, cathepsin X", "test": "Determination of relative inhibition of cathepsin X", "type": "biochemical", "set-up": "made in house; host or cells: Pichia pastoris", "description": "as §1\nAbz-FEK(Dnp)-OH was used as cathepsin X specific substrate in activity assays. 90 μL of activated cathepsin X (20 nM) was added to a black 96-well plate with 5 μL of substrate (3.25 μM final concentration) and 5 μL of the compound (50 μM final concentration). The reaction was monitored continuously at 420 nm ± 10 nm with excitation at 320 nm ± 20 nm and at 37 °C. Relative inhibition (%) was calculated with the equation (1 − v i/v 0) × 100, where v i is reaction velocity in the presence of the compound and v 0 is reaction velocity without the compound."}}, "note": "Read-outs that look alike come from different tables or passages of the source.", "data": [{"compound": "CC(C)n1cnnc1SCC(=O)c1ccc2c(c1)OCCO2", "note": "[Compound 22, 1-(2,3-Dihydrobenzo[b][1,4]dioxin-6-yl)-2-((4-isopropyl-4H-1,2,4-triazol-3-yl)thio)ethan-1-one]", "values": [{"measurement": "Ki", "setting": "[1]", "result": "310 ± 68.3", "unit": "µM"}, {"measurement": "Ki Cathepsin L", "setting": "Cathepsin L", "result": "n.i."}, {"measurement": "Ki", "setting": "Cathepsin H", "result": "> 1000", "unit": "µM"}, {"measurement": "Ki Cathepsin S", "setting": "Cathepsin S", "result": "n.i."}, {"measurement": "inhibition of cathepsin X activity in PC-12 cell lysates", "setting": "[2]", "result": "most potent"}, {"measurement": "actin polymerization", "setting": "PC-12 cells", "result": "increased actin polymerization"}, {"measurement": "Inhibition mechanism", "setting": "cathepsin X [3]; ENZO", "result": "competitive"}, {"measurement": "Ki", "setting": "cathepsin X [3]; progress curve analysis with ENZO", "result": "2.45 ± 0.05", "unit": "µM"}, {"measurement": "inhibition at 50 µM", "setting": "cathepsin X [4]; screening at 50 μM compound, read-out: relative inhibition of cathepsin X", "result": "> 70", "unit": "%"}, {"measurement": "inhibition at 50 µM", "setting": "cathepsin X [4]; second group, 50 μM compound, 1 h preincubation, read-out: % inhibition (1 h preincubation)", "result": 75, "unit": "%"}]}]}
